Measured values published in PMC7464159, “Triple Negative Breast Cancer and Breast Epithelial Cells Differentially Reprogram Glucose and Lipid Metabolism upon Treatment with Triterpenic Acids” (Biomolecules, 2020).

Tested on: MDA-MB-231 cells
Experiment: 1H NMR metabolomics of polar (aqueous) cell extracts
Assay type: cell-based, human
Procedure: MDA-MB-231 and MCF-10A cells were seeded in 10-cm-diameter Petri dishes at a density of 6 × 10^5 cells/mL (10 mL per dish) and cultured for 24 h at 37 °C. […] Vehicle solvent control cells received DMSO (0.10% v/v). Samples were collected immediately after 48 h incubation or, to assess cellular recovery, medium was replaced with fresh growth medium (without TAs), and cells were incubated for additional 24 h before collection (48 + 24 h samples). Four independent assays were performed.
After incubation, culture medium was collected and centrifuged (1000× g, 5 min) and the supernatant stored at −80 °C until analysis. Culture medium without cells was placed under the same conditions and collected. Cell extraction was performed as described by Carrola et al.. Briefly, cells were washed four times with PBS and extracted with a mixture of methanol:chloroform:water (1:1:0.7). The resulting polar and organic phases were collected and then dried under vacuum or under a stream of nitrogen gas, respectively. All samples were stored at −80 °C and, at the time of analysis, dried polar extracts were reconstituted in 600 µL of deuterated phosphate buffer (100 mM, pH 7.4) containing 0.1 mM TSP-d4, while organic extracts were reconstituted in deuterated chloroform containing 0.03% TMS. Regarding medium samples, 540 μL were mixed with 60 μL of D2O containing 0.25% TSP-d4. Prior to analysis, 550 μL of each sample were transferred to 5 mm NMR tubes.
^1H NMR spectra of all samples were acquired on a Bruker Avance III HD 500 NMR spectrometer (University of Aveiro, Portuguese NMR Network) operating at 500.13 MHz for ^1H observation equipped with a 5 mm TXI probe. Standard 1D spectra (Bruker pulse programs ‘noesypr1d’, with water suppression, for medium samples and aqueous extracts, and ‘zg’ for organic extracts) were recorded with a 7002.8 Hz spectral width, 32 k data points, a 2 s relaxation delay and 512 scans. Spectral processing comprised exponential multiplication with 0.3 Hz line broadening, zero filling to 64 k data points, manual phasing, baseline correction, and chemical shift calibration to the TSP or TMS signal at 0 ppm. 2D ^1H-^1H total correlation (TOCSY) spectra, ^1H-^13C heteronuclear single quantum correlation (HSQC) spectra and J-resolved spectra were also registered for selected samples to assist spectral assignment. Metabolites were identified with the support of 2D spectra and the spectral reference databases BBIOREFCODE-2-0-0 (Bruker Biospin, Rheinstetten, Germany) and HMDB [28]. Selected signals were then integrated using the AmixViewer software […] (version 3.9.14, Bruker BioSpin, Rheinstetten, Germany) and normalized by the total spectral area. The magnitude of each metabolite change was assessed through the percentage of variation (and its respective error) in exposed samples relatively to controls, and through the effect size (ES) adjusted for small sample numbers (and respective standard error). Metabolite variations with absolute ES greater than 0.8 were expressed in a heatmap, colored as a function of the percentage of variation, employing the R statistical software.

## C=C(C)[C@@H]1CC[C@]2(C(=O)O)CC[C@]3(C)[C@H](CC[C@@H]4[C@@]5(C)CC[C@H](O)C(C)(C)[C@@H]5CC[C@]43C)[C@@H]12 [BA, betulinic acid]
BA 5µM, 48h
  ATP %var: 0%
  Acetate %var: 0%
  Ala %var: -12.64%
  Asp %var: -30.52%
  Choline %var: 10.16%
  Citrate %var: -40.97%
  Cr %var: 22.45%
  Fumarate %var: -35.42%
  GPC %var: 13.50%
  GSH %var: -15.77%
  Gln %var: -28.49%
  Glu %var: -24.61%
  Gly %var: 0%
  Ile %var: 14.68%
  Lactate %var: 53.08%
  Leu %var: 15.91%
  PC %var: -24.96%
  PCr %var: -19.36%
  Phe %var: 6.80%
  Pro %var: 16.73%
  Tau %var: 6.09%
  Tyr %var: 8.11%
  Val %var: 18.46%
  myo-Ino %var: -8.23%
BA 5µM, 48h+24h
  ATP %var: -7.54%
  Acetate %var: 0%
  Ala %var: -7.44%
  Asp %var: 0%
  Choline %var: 0%
  Citrate %var: -12.45%
  Cr %var: 0%
  Fumarate %var: 0%
  GPC %var: 0%
  GSH %var: 0%
  Gln %var: 0%
  Glu %var: 0%
  Gly %var: -8.57%
  Ile %var: 0%
  Lactate %var: 0%
  Leu %var: 0%
  PC %var: 0%
  PCr %var: 0%
  Phe %var: 0%
  Pro %var: 0%
  Tau %var: 0%
  Tyr %var: 0%
  Val %var: 0%
  myo-Ino %var: -6.52%
BA 15µM, 48h
  ATP %var: 0%
  Acetate %var: 21.07%
  Ala %var: -10.34%
  Asp %var: -12.45%
  Choline %var: 12.46%
  Citrate %var: -51.74%
  Cr %var: 18.99%
  Fumarate %var: -37.50%
  GPC %var: 26.27%
  GSH %var: -25.87%
  Gln %var: -20.94%
  Glu %var: -37.41%
  Gly %var: -9.59%
  Ile %var: 30.97%
  Lactate %var: 55.73%
  Leu %var: 33.86%
  PC %var: -38.62%
  PCr %var: -22.44%
  Phe %var: 24.06%
  Pro %var: 21.93%
  Tau %var: 7.79%
  Tyr %var: 28.53%
  Val %var: 38.79%
  myo-Ino %var: -18.58%
  number of intracellular polar metabolites consistently altered: 23
BA 15µM, 48h+24h
  ATP %var: -15.36%
  Acetate %var: 22.70%
  Ala %var: -12.62%
  Asp %var: 0%
  Choline %var: 0%
  Citrate %var: -19.78%
  Cr %var: 0%
  Fumarate %var: 0%
  GPC %var: 0%
  GSH %var: 0%
  Gln %var: -5.26%
  Glu %var: -11.90%
  Gly %var: -31.75%
  Ile %var: 0%
  Lactate %var: 0%
  Leu %var: 0%
  PC %var: 0%
  PCr %var: -14.19%
  Phe %var: 0%
  Pro %var: 0%
  Tau %var: 0%
  Tyr %var: 0%
  Val %var: 0%
  myo-Ino %var: -17.84%

## C[C@H]1[C@H](C)CC[C@]2(C(=O)O)CC[C@]3(C)C(=CC[C@@H]4[C@@]5(C)CC[C@H](O)C(C)(C)[C@@H]5CC[C@]43C)[C@H]12 [UA, ursolic acid]
UA 10µM, 48h
  ATP %var: 0%
  Acetate %var: 0%
  Ala %var: 0%
  Asp %var: 0%
  Choline %var: -6.23%
  Citrate %var: -23.26%
  Cr %var: 0%
  Fumarate %var: 0%
  GPC %var: 9.94%
  GSH %var: -7.40%
  Gln %var: -13.00%
  Glu %var: 0%
  Gly %var: 0%
  Ile %var: 0%
  Lactate %var: 0%
  Leu %var: 0%
  PC %var: -7.00%
  PCr %var: -13.59%
  Phe %var: 0%
  Pro %var: 0%
  Tau %var: 0%
  Tyr %var: 0%
  Val %var: 0%
  myo-Ino %var: 0%
UA 10µM, 48h+24h
  ATP %var: 0%
  Acetate %var: 0%
  Ala %var: 0.00%
  Asp %var: 0.00%
  Choline %var: 0%
  Citrate %var: -10.99%
  Cr %var: 0%
  Fumarate %var: 0%
  GPC %var: 0%
  GSH %var: 0%
  Gln %var: 0%
  Glu %var: 0%
  Gly %var: -7.50%
  Ile %var: 0%
  Lactate %var: 0%
  Leu %var: 0%
  PC %var: 0%
  PCr %var: 0%
  Phe %var: 0%
  Pro %var: 0%
  Tau %var: 0%
  Tyr %var: 0%
  Val %var: 0%
  myo-Ino %var: 0%
UA 20µM, 48h
  ATP %var: 0%
  Acetate %var: 10.69%
  Ala %var: 0%
  Choline %var: 0%
  Citrate %var: -19.44%
  Cr %var: 0%
  GPC %var: 10.72%
  GSH %var: -7.50%
  Gln %var: 0%
  Glu %var: 0%
  Gly %var: -15.08%
  Ile %var: 0%
  Lactate %var: 0%
  Leu %var: 0%
  PC %var: -6.17%
  PCr %var: -10.77%
  Phe %var: 0%
  Pro %var: 0%
  Tau %var: 11.82%
  Tyr %var: 0%
  Val %var: 0%
  myo-Ino %var: 0%
  number of intracellular polar metabolites consistently altered: 10
UA 20µM, 48h+24h
  ATP %var: -9.33%
  Acetate %var: 11.02%
  Ala %var: -12.11%
  Asp %var: 32.91%
  Choline %var: 0%
  Citrate %var: -15.02%
  Cr %var: 0%
  Fumarate %var: -10.34%
  GPC %var: -6.52%
  GSH %var: -8.79%
  Gln %var: 0%
  Glu %var: 0%
  Gly %var: -25.85%
  Ile %var: 0%
  Lactate %var: 0%
  Leu %var: 0%
  PC %var: 21.66%
  PCr %var: 0%
  Phe %var: 0%
  Pro %var: 0%
  Tau %var: 0%
  Tyr %var: 0%
  Val %var: 0%
  myo-Ino %var: -9.02%
